Measurements published in patent US8349791B2, “Polypeptides that bind membrane proteins” (The Trustees of the University of Pennsylvania, priority 2006, dated 2013).
Peptide text beside a SMILES is read from it.

How the values were obtained:
[1] = TOXCAT homodimerization in bacterial membranes; type: cell-based, Escherichia coli; conditions: ToxR fusion in E. coli
Experimental: Both the affinity and specificity of the membrane protein-binding peptides for their targets when coexpressed in bacterial membranes were assessed with a DN-“TOXCAT” assay (FIGS. 3a-3c). In TOXCAT, a TM sequence of interest is fused to a ToxR protein (TM-ToxR) that binds to the ctx promoter as a dimer, which induces expression of chloramphenicol acetyltransferase (CAT) (W. P. Russ, D. M. Engelman, Proc. Natl. Acad. Sci. U.S.A. 96, 863 (1999); D. Langosch, B. Brosig, H. Kolmar, H. J. Fritz, J. Mol. Biol. 263, 525 (1996)). In the DN assay, the TM1-ToxR fusion protein is coexpressed with a second fusion protein (TM2-ToxR*) containing a nonfunctional mutant of the ToxR domain. TM-driven dimerization leads to a ToxR-ToxR* dimer that is unable to bind the ctx promoter or to induce CAT synthesis (FIG. 3a). The resulting decrease in CAT activity can be used to monitor the formation of a heterodimeric TM complex. In principle, this assay could be accomplished by adding an exogenous synthetic peptide (D. Gerber, N. Sal-Man, Y. Shai, J. Mol. Biol. 339, 243 (2004)); however, it is difficult to assure that different peptides will be similarly inserted into the Escherichia coli inner membrane. […]

αIIbβ3 = target: T1, αIIbβ3 (Homo sapiens, UniProt P08514); assay: Force spectroscopy (laser tweezers), platelets and fibrinogen-coated beads; type: cell-based
T1 construct: trapped from a suspension of gel filtered human platelets or CHO cells; endogenous in cells; host or cells: gel-filtered human platelets
Text: Litvinov R I et al. Proc. Natl. Acad. Sci. USA. 99, 7426-31 (2002). Recombinant human OPN, prepared as previously described (Bennett J S et al. J. Biol. Chem. 272, 8137-40 (1997)) or purified human fibrinogen was covalently bound to 0.93 μm carboxylate-modified latex beads. Individual cells, trapped from a suspension of gel filtered human platelets or CHO cells, were manually attached to 5 μm diameter silica pedestals coated with polylysine. An OPN- or fibrinogen-coated bead, trapped by the laser light, was then brought into proximity of an immobilized cell, oscillated at 50 Hz, and then brought into repeated intermittent contact with the cell by micromanipulation. Data collection was initiated at the first contact between the bead and the cell. Rupture forces following repeated contacts were collected for periods of several seconds to one minute. Individual forces measured during each contact-detachment cycle were collected into 10 pN-wide bins. The number of events in each bin was then plotted against the average force for that bin after normalizing for the total number of interaction cycles. Thus, the percentage of events in a particular force range (bin) represents the probability of rupture events at that tension. Optical artifacts observed with or without trapped latex beads produce signals that appeared as forces below 10 pN. Therefore, rupture forces in this range were not considered when the data were analyzed. The polypeptide was added from a DMSO solution such that the final concentration of DMSO was no greater than 0.5%. All controls also had 0.5% DMSO in the buffer.
Beads coated with fibrinogen were brought into intermittent contact with immobilized platelets in the presence or absence of anti-αIIb and the rupture force was measured. Litvinov R I et al. J. Biol. Chem. 278, 51285-51290 (2003). In the absence of anti-αIIb, the binding probability of platelets and fibrinogen-coated beads decreased exponentially (FIG. 5a) with increasing force, consistent with a non-specific interaction of the beads with the platelet surface. Litvinov R I (2003). […]

αVβ3 = target: T2, αVβ3 (Homo sapiens, UniProt P06756); assay: Platelet adhesion to immobilized osteopontin; type: cell-based
T2 construct: Platelets express a second integrin with a β3 subunit, αVβ3; endogenous in cells; host or cells: gel-filtered human platelets
Experimental: The integrin αVβ3 mediates adhesion of platelets to the matrix protein osteopontin, potentially exposed to the circulating blood by rupture of an atherosclerotic plaque. […] The potency of anti-αv in inducing platelet adhesion to osteopontin was approximately 10-fold lower than that of anti-αIIb in inducing platelet aggregation (FIG. 11). Adhesion of platelets in 100 μl aliquots of gel-filtered human platelets to immobilized osteopontin was induced by the indicated concentrations of anti-αV, either alone or in the presence of the calcium chelator 2.5 mM EDTA or the global platelet signal transduction inhibitor 2 μM PGE1. Platelets stimulated by 20 μM ADP served as a positive control. Platelet adhesion was quantitated using a colorimetric assay based on measurement of platelet acid phosphatase activity. The data shown in FIG. 11 are the mean and standard error of measurements made in triplicate. Anti-αV-induced adhesion was prevented by agents that inhibit the interaction of αVβ3's extracellular ligand-binding site with osteopontin, including EDTA or the specific RGD-containing αVβ3 antagonist XJ735, confirming that anti-αV induced platelet adhesion to osteopontin is mediated by αVβ3.
Platelet adhesion to osteopontin was measured as previously described. See Fleming K G J. Mol. Biol. 323, 563-571 (2002). Briefly, 96-well flat bottom microtiter plates (Immulon 2, Dynatech, Chantilly Va.) were coated with 5 μg/ml of recombinant osteopontin dissolved in 50 mM NaHCO3 buffer, pH 8.0, containing 150 mM NaCl. Unoccupied protein binding sites on the wells were blocked with 5 mg/ml bovine serum albumin dissolved in the same buffer. One hundred μl aliquots of a gel-filtered platelet suspension containing ≈2-5×10^6 platelets were added to the protein-coated wells in the absence or presence of anti-αV or ADP. Following an incubation for 30 min at 37° C. without agitation, the plates were washed four times and the number of adherent platelets measured using a colorimetric assay that measure platelet acid phosphatase activity. The polypeptide was added from a DMSO solution such that the final concentration of DMSO was no greater than 0.5%. All controls also had 0.5% DMSO in the buffer.

T1 sequence (P08514 891-1039 limits assumed): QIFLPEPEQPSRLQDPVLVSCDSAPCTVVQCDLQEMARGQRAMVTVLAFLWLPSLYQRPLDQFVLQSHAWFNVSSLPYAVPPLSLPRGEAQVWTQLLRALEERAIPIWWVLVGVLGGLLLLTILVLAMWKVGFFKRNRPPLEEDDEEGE
T1 sequence (P08514 32-887 partner limits assumed): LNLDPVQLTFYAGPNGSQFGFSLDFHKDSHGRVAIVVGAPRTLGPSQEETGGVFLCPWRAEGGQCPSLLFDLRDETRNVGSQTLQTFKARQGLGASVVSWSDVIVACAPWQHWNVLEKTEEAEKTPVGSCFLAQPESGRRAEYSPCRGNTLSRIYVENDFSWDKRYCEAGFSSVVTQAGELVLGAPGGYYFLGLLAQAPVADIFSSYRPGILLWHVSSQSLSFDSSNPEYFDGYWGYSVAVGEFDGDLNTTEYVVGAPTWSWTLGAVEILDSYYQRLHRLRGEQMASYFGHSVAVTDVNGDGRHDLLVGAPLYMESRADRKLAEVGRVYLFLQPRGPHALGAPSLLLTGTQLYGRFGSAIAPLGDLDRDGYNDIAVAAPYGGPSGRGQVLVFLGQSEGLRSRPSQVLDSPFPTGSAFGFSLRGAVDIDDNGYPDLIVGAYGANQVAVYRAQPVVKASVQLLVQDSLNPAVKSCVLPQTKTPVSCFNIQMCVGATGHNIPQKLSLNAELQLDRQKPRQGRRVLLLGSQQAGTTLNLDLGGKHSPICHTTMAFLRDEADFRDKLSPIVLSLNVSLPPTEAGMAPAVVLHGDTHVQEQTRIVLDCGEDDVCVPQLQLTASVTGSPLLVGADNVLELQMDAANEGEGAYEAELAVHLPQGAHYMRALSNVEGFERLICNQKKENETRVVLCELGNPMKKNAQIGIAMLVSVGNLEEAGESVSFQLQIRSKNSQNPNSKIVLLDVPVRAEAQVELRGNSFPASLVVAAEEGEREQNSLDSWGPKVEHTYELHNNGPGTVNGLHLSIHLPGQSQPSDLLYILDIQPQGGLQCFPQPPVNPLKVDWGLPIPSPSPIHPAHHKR
T1 sequence (P05106 27-788 partner): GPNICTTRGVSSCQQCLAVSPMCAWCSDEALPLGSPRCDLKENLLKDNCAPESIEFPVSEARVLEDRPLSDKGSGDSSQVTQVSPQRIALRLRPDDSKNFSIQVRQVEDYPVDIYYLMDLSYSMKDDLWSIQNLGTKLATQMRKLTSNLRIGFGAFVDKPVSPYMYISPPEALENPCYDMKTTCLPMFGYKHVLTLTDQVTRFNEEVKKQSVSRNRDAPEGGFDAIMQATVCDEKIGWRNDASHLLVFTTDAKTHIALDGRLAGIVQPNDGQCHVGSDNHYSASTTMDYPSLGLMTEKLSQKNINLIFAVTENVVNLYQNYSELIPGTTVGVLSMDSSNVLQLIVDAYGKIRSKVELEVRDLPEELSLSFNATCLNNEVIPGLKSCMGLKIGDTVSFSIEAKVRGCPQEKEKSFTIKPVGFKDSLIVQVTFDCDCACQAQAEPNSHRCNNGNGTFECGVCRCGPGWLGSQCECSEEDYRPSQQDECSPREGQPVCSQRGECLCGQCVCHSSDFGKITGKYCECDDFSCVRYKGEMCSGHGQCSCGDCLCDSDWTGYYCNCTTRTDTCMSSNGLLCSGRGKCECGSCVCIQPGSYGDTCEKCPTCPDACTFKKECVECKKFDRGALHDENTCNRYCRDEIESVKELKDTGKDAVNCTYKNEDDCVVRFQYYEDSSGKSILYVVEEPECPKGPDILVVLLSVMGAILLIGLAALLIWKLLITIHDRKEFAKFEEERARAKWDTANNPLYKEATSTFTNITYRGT
T2 sequence (P06756 891-1048 limits assumed): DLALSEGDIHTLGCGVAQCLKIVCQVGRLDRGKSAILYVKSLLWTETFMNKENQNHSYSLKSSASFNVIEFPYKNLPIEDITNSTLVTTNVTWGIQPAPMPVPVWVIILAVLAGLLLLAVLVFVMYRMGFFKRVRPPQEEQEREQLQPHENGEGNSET
T2 sequence (P06756 31-889 partner limits assumed): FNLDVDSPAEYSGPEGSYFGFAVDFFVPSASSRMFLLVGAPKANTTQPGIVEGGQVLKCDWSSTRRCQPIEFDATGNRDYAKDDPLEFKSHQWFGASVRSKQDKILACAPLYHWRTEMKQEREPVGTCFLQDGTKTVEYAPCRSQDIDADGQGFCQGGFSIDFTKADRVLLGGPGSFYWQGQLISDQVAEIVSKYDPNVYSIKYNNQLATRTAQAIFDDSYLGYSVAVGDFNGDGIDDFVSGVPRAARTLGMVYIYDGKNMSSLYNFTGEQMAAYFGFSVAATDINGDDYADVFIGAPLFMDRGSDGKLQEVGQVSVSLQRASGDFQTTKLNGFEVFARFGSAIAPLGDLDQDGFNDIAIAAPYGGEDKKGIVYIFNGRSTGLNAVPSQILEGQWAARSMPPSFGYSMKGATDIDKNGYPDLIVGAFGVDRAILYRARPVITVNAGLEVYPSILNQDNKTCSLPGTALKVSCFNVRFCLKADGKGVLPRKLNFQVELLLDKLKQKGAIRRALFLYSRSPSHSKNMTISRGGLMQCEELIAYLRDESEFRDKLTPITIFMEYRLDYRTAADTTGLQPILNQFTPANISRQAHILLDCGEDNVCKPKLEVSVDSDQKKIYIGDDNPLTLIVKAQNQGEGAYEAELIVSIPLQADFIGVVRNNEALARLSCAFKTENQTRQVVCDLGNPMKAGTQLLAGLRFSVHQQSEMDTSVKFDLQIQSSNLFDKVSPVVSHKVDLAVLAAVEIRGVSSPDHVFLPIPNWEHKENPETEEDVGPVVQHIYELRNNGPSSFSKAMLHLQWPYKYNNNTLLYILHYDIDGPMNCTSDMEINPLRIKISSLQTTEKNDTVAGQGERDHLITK
T2 sequence (P05106 27-788 partner): as the sequence (P05106 27-788 partner) above

Compound	homodimer formation in bacterial membranes (CAT signal, words) [1]	peak of rupture force between platelets and fibrinogen-coated beads (αIIbβ3; 0.5 μM polypeptide)	rupture force peak after pre-incubation with αIIbβ3 antibody abciximab (αIIbβ3; 0.5 μM polypeptide)	rupture force / activation, platelets and fibrinogen-coated beads (αIIbβ3)	potency in inducing platelet adhesion to osteopontin, lower than that of anti-αIIb in inducing platelet aggregation (αVβ3)	induced adhesion after pre-incubating the platelets with PGE1 (αVβ3; 2 μM PGE1)	induced adhesion in the presence of EDTA or αVβ3 antagonist XJ735 (αVβ3; 2.5 mM EDTA)	platelet adhesion to osteopontin (αVβ3; absence of pharmacological platelet agonists)
CC[C@H](C)[C@H](NC(=O)[C@H](Cc1ccccc1)NC(=O)[C@H](Cc1ccccc1)NC(=O)[C@@H]1CCCN1C(=O)[C@H](CC(C)C)NC(=O)[C@H](CC(C)C)NC(=O)[C@H](CCSC)NC(=O)[C@@H](NC(=O)[C@H](Cc1ccc(O)cc1)NC(=O)[C@H](C)NC(=O)[C@H](CCCCN)NC(=O)[C@@H](N)CCCCN)C(C)C)C(=O)NCC(=O)N[C@@H](CC(C)C)C(=O)N[C@@H](CC(C)C)C(=O)N[C@@H](CC(C)C)C(=O)NCC(=O)N[C@@H](CC(C)C)C(=O)N[C@H](C(=O)N[C@@H](Cc1ccccc1)C(=O)NCC(=O)NCC(=O)N[C@@H](C)C(=O)N[C@@H](Cc1ccccc1)C(=O)N[C@@H](Cc1c[nH]c2ccccc12)C(=O)NCC(=O)N1CCC[C@H]1C(=O)N[C@@H](C)C(=O)N[C@@H](CCCNC(=N)N)C(=O)N[C@@H](Cc1c[nH]cn1)C(=O)N[C@@H](CC(C)C)C(=O)N[C@@H](CCCCN)C(=O)N[C@@H](CCCCN)C(N)=O)[C@@H](C)CC [anti-αIIb] (H-KKAYVMLLPFFIGLLLGLIFGGAFWGPARHLKK-NH2; N-terminus assumed)	affinity similar to that of the TM domain of glycophorin A (GpA)	~70 pN	eliminated the rupture force peak	–	–	–	–	–
AYVFILLSFILGTLLGFLVMFWA [anti-αV]	affinity similar to that of the TM domain of glycophorin A (GpA)	–	–	no peak of specific rupture force was observed	approximately 10 fold	only minimally affected	prevented	induced robust platelet adhesion to osteopontin
